Laboratory results: ChEMBL document CHEMBL1781889, “A chemometric study of the 5-HT(1A) receptor affinities presented by arylpiperazine compounds” (Eur J Med Chem, 2008)

Target: T1, 5-hydroxytryptamine receptor 1A (Homo sapiens, UniProt P08908)
T1 sequence (P08908 whole entry): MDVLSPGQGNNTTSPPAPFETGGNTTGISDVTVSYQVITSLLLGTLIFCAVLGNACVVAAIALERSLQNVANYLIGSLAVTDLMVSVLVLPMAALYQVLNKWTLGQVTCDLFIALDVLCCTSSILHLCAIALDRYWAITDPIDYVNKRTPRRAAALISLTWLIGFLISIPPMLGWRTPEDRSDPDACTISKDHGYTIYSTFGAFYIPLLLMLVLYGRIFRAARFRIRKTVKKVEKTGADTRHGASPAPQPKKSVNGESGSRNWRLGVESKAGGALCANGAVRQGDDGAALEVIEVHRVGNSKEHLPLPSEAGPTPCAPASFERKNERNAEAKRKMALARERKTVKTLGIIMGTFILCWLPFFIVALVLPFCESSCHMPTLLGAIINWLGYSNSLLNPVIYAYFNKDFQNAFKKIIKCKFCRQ
Test: Binding affinity to 5HT1A receptor

SMILES | Ki
FC(F)(F)c1ccc(OC(CCN2CCN(c3ccccc3Cl)CC2)c2ccccc2)cc1 (stereo unspecified) | 5010 nM
O=C(CCN1CCN(c2cccc3ccccc23)CC1)c1ccsc1 | 34.7 nM
OC(CCN1CCN(c2ccccn2)CC1)c1ccccc1 (stereo unspecified) | 155 nM
O=[N+]([O-])c1ccc(N2CCN(CCC(Oc3ccc(C(F)(F)F)cc3)c3ccccc3)CC2)cc1 (stereo unspecified) | 5010 nM
COc1ccccc1N1CCN(CCC(Oc2ccc(C(F)(F)F)cc2)c2ccccc2)CC1 (stereo unspecified) | 447 nM
OC(CCN1CCN(c2ccc(Cl)cc2)CC1)c1csc2ccccc12 (stereo unspecified) | 5010 nM
Clc1ccc(N2CCN(CCC(Oc3ccc4c(c3)OCO4)c3ccccc3)CC2)cc1 (stereo unspecified) | 550 nM
O=C(CCN1CCN(c2ccc(F)cc2)CC1)c1ccccc1 | 794 nM
O=C(CCN1CCN(c2ccc([N+](=O)[O-])cc2)CC1)c1ccccc1 | 5010 nM
COc1ccc(C(CCN2CCN(c3ccccc3OC)CC2)Oc2ccc(C(F)(F)F)cc2)cc1 (stereo unspecified) | 1000 nM
O=C(CCN1CCN(c2ccc(Cl)cc2)CC1)c1csc2ccccc12 | 5010 nM
COc1ccc(N2CCN(CCC(Oc3ccc(C(F)(F)F)cc3)c3ccccc3)CC2)cc1 (stereo unspecified) | 5010 nM
O=C(CCN1CCN(c2ccccc2Cl)CC1)c1ccccc1 | 182 nM
COc1ccc(N2CCN(CCC(O)c3ccc(-c4ccccc4)cc3)CC2)cc1 (stereo unspecified) | 851 nM
COc1ccccc1N1CCN(CCC(Oc2ccc(C(F)(F)F)cc2)c2ccsc2)CC1 (stereo unspecified) | 257 nM
OC(CCN1CCN(c2ccc(Cl)cc2)CC1)c1ccccc1 (stereo unspecified) | 794 nM
Fc1ccc(N2CCN(CCC(Oc3ccc(C(F)(F)F)cc3)c3ccccc3)CC2)cc1 (stereo unspecified) | 5010 nM
OC(CCN1CCN(c2ccc(Cl)cc2)CC1)c1cccs1 (stereo unspecified) | 5010 nM
O=C(CCN1CCN(c2ncccn2)CC1)c1ccccc1 | 120 nM
O=C(CCN1CCN(c2ccccn2)CC1)c1ccccc1 | 50.1 nM
Cc1ccc(OC(CCN2CCN(c3ccc(Cl)cc3)CC2)c2ccccc2)cc1 (stereo unspecified) | 1450 nM

SMILES | Ki
COc1ccc(N2CCN(CCC(=O)c3ccccc3)CC2)cc1 | 5010 nM
FC(F)(F)c1ccc(OC(CCN2CCN(c3ncccn3)CC2)c2ccccc2)cc1 (stereo unspecified) | 1580 nM
Cc1cc(C(=O)CCN2CCN(c3cccc4ccccc34)CC2)c(C)s1 | 100 nM
COc1ccccc1N1CCN(CCC(=O)c2ccc(-c3ccccc3)cc2)CC1 | 3630 nM
OC(CCN1CCN(c2ccc(Cl)cc2)CC1)c1ccc2ccccc2c1 (stereo unspecified) | 5010 nM
O=C(CCN1CCN(c2ccc(Cl)cc2)CC1)c1ccccc1 | 794 nM
O=[N+]([O-])c1ccc(N2CCN(CCC(O)c3ccccc3)CC2)cc1 (stereo unspecified) | 5010 nM
O=C(CCN1CCN(c2ccccc2O)CC1)c1csc2ccccc12 | 110 nM
O=C(CCN1CCN(c2ccc(Cl)cc2)CC1)c1cccs1 | 5010 nM
COc1cc(Cl)ccc1N1CCN(CCC(=O)c2csc3ccccc23)CC1 | 501 nM
Cc1cc(C(=O)CCN2CCN(c3ccccc3O)CC2)c(C)s1 | 7.59 nM
O=C(CCN1CCN(c2ccccc2Cl)CC1)c1ccsc1 | 200 nM
COc1ccccc1N1CCN(CCC(Oc2ccc(C(F)(F)F)cc2)c2ccc(-c3ccccc3)cc2)CC1 (stereo unspecified) | 5010 nM
COc1ccccc1N1CCN(CCC(=O)c2ccc3ccccc3c2)CC1 | 251 nM
OC(CCN1CCN(c2ccccc2Cl)CC1)c1ccccc1 (stereo unspecified) | 115 nM
Oc1ccccc1N1CCN(CCC(O)c2csc3ccccc23)CC1 (stereo unspecified) | 18.2 nM
O=C(CCN1CCN(c2ccc(Cl)cc2)CC1)c1ccc2ccccc2c1 | 5010 nM
COc1ccc(N2CCN(CCC(O)c3ccccc3)CC2)cc1 (stereo unspecified) | 5010 nM
COc1cc(F)ccc1N1CCN(CCC(=O)c2csc3ccccc23)CC1 | 501 nM
O=C(CCN1CCN(c2cccc3ccccc23)CC1)c1csc2ccccc12 | 100 nM

Further lines, results first:

Ki | SMILES
5.01 nM | COc1ccccc1N1CCN(CCC(=O)c2cc(C)sc2C)CC1
50.1 nM | COc1ccccc1N1CCN(CCC(O)c2ccsc2)CC1 (stereo unspecified)
17.4 nM | COc1ccccc1N1CCN(CC/C(=N\O)c2ccccc2)CC1
339 nM | COc1ccccc1N1CCN(CCC(=O)c2ccc([N+](=O)[O-])s2)CC1
33.9 nM | COc1ccccc1N1CCN(CCC(O)c2ccc(C)s2)CC1 (stereo unspecified)
20 nM | COc1ccccc1N1CCN(CCC(O)c2csc3ccccc23)CC1 (stereo unspecified)
10 nM | COc1ccccc1N1CCN(CCC(=O)c2cccs2)CC1
17.4 nM | COc1ccccc1N1CCN(CCC(=O)c2ccc(C)s2)CC1
417 nM | COc1ccccc1N1CCN(CCC(O)c2ccc3ccccc3c2)CC1 (stereo unspecified)
47.9 nM | COc1ccccc1N1CCN(CCC(O)c2ccccc2)CC1 (stereo unspecified)
19.1 nM | COc1ccccc1N1CCN(CCC(O)c2cccs2)CC1 (stereo unspecified)
501 nM | COc1cc(F)ccc1N1CCN(CCC(O)c2csc3ccccc23)CC1 (stereo unspecified)
15.8 nM | COc1ccccc1N1CCN(CCC(=O)c2ccsc2)CC1
12 nM | COc1ccccc1N1CCN(CCC(O)c2cc(C)sc2C)CC1 (stereo unspecified)
6.46 nM | COc1ccccc1N1CCN(CC/C(=N\O)c2ccsc2)CC1
200 nM | OC(CCN1CCN(c2ccccc2Cl)CC1)c1ccsc1 (stereo unspecified)
91.2 nM | Cc1cc(C(O)CCN2CCN(c3ccccc3O)CC2)c(C)s1 (stereo unspecified)
43.7 nM | COc1ccccc1N1CCN(CCC(=O)c2csc3ccccc23)CC1
363 nM | COc1cc(Cl)ccc1N1CCN(CCC(O)c2csc3ccccc23)CC1 (stereo unspecified)
324 nM | COc1ccc(C(O)CCN2CCN(c3ccccc3OC)CC2)cc1 (stereo unspecified)
